Test results reported in US20080171783A1, “COMPOSITIONS AND METHODS FOR TREATING HYPERPROLIFERATIVE DISEASE” (Migenix Inc., priority 2006, published 2008).

Legend:
[1] = target: T1, Calf polymerase alpha (Bos taurus, UniProt A0AAA9TD94); test: Calf polymerase alpha inhibition (Replizyme kit); assay type: biochemical; conditions: at 10 μM, single point screening
T1 construct: purchased Replizyme Ltd (Heslington, York, UK)
T1 sequence (A0AAA9TD94 1-1441): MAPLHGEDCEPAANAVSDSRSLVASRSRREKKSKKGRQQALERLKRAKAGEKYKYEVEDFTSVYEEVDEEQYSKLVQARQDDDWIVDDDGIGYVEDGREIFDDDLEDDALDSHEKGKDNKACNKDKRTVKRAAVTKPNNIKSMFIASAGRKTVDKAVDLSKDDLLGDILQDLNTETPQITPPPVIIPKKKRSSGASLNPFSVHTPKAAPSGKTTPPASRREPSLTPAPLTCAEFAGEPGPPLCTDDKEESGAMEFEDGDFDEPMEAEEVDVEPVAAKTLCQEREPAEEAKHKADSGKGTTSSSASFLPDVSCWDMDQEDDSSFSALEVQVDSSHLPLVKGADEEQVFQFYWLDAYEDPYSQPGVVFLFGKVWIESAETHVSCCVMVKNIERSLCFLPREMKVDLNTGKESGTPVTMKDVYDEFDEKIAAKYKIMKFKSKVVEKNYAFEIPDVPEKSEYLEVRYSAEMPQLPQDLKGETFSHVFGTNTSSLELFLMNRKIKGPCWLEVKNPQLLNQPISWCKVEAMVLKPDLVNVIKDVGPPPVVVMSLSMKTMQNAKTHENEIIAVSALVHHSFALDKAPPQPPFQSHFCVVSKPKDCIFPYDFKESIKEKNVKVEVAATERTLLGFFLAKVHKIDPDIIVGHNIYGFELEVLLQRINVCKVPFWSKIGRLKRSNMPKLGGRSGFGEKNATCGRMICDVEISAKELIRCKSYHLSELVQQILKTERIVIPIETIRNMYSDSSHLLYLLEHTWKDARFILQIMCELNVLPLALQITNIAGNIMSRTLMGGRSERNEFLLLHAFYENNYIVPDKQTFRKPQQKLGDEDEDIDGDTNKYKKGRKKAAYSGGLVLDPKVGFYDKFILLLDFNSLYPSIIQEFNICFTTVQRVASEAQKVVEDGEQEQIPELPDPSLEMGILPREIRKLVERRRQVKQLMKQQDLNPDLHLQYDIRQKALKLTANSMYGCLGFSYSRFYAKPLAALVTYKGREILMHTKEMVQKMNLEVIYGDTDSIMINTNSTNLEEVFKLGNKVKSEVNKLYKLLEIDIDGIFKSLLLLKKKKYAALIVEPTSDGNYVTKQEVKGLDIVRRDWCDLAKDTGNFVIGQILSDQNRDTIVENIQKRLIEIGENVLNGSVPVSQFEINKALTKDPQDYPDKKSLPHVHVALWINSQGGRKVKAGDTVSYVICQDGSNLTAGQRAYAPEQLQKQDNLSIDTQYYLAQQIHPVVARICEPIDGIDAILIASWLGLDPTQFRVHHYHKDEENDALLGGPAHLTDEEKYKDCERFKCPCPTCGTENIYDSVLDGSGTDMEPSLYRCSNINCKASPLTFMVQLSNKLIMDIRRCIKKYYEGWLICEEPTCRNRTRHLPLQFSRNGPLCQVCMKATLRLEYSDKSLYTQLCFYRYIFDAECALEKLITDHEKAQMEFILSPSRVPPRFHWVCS
Description: Calf polymerase alpha and human polymerase alpha investigations were performed with a kit available from Replizyme Ltd (Heslington, York, UK).

[2] = system: 5 Leukemia and 5 Colon Cancer Cell Lines; test: Cell viability by XTT, cell line panel; assay type: cell-based; conditions: for Range (Percentage of Control over the same 10 cell lines) / ARF (Average Response Factor, Average Percentage of Control): 10 μM; for Range (Percentage of Control over the same 10 cell lines): lowest to highest of the ten cell lines; for viability at 10 µM / ARF (Average Response Factor, Average Percentage of Control): average of the ten Percentage of Control values; for viability at 10 µM: read-out: ARF (Average Response Factor, Average Percentage of Control)
Description: Compounds were solubilized at […] in DMSO and were stored at −20° C. Test compounds were initially tested at a single concentration of 10 μM and a subset of test compounds were further tested in selected cell lines using a six concentration dose response curve.
Cell Preparation Cancer cell lines were passaged in T-75 flasks prior to use in the assay in cell culture medium recommended by the ATCC (American Type Culture Collection; Table 6). On the day preceding the assay, the cells were split 1:2 to assure they were in an exponential growth phase at the time of compound treatment. Total cell and viability quantification was performed using a hemocytometer and Trypan Blue dye exclusion. […] The cells were resuspended at the appropriate cell per mL (Table 6) in tissue culture medium and added to the microtitre plates in a volume of 100 μL. Colon cell lines were incubated overnight at 37° C./5% CO2 to allow for cell adherence to the plates.
Plate Format: Each plate contains cell control wells (cells only), drug calorimetric control wells (drug only) as well as experimental wells (drug plus cells). Samples were tested in triplicate at a concentration of 10 μM and five half-logarithmic dilutions.
Cell Viability by XTT: Following incubation at 37° C. in a 5% CO2 incubator for four days, the test plates were stained with the tetrazolium dye XTT (2,3-bis(2-methoxy-4-nitro-5-sulfophenyl)-5-[(phenylamino)carbonyl]-2H-tetrazolium hydroxide). XTT-tetrazolium was metabolized by the mitochondrial enzymes of metabolically active cells to a soluble formazan product. XTT solution was prepared daily as a stock of 1 mg/mL in RPMI1640. Phenazine methosulfate (PMS) solution was prepared at 0.15 mg/mL in phosphate buffered saline (PBS) and stored in the dark at −20° C. XTT/PMS stock was prepared immediately before use by adding 40 μL of PMS per mL of XTT solution. Fifty (50) microlitres of XTT/PMS was added to each well of the plate and the plate was reincubated for 4 hours at 37° C. Plates were sealed with adhesive plate sealers and shaken gently or inverted several times to mix the soluble formazan product and the plate was read spectrophotometrically at 450/650 nm with a Molecular Devices Vmax plate reader. […] An Average Response Factor (ARF) was calculated for each compound by averaging the ten Percentage of Control values for the cell lines. […] Deviations below 100% control indicate activity. The concentration of each tested compound is 10 μM.

Row | SMILES | inhibition at 10 µM [1] [%] | Range (Percentage of Control over the same 10 cell lines) [2] [%] | % Inhibition [1] [%] | also measured
1 | NCCCC[C@H](NC(=O)Nc1ccc(OCc2ccccc2)cc1)C(=O)Nc1ccc(C2CCCCC2)cc1 [Compound 117, (S)-6-AMINO-2-[3-(4-BENZYLOXY-PHENYL)-UREIDO]-HEXANOIC ACID (4-CYCLOHEXYL-PHENYL)-AMIDE] | 102 | 35.7 to 125.7 |  | viability at 10 µM [2]: 86.5%
2 | Cc1ccc(NC(=O)[C@H](CCCCN)NC(=O)Nc2cccc(Cc3ccccc3)c2)cc1 [Compound 212, (S)-6-AMINO-2-[3-(3-BENZYL-PHENYL)-UREIDO]-HEXANOIC ACID P-TOLYLAMIDE] |  | 52.7 to 118.6 | 97 | ARF (Average Response Factor, Average Percentage of Control) [2]: 94.2%
3 | Cc1ccc(NC(=O)[C@H](CCCCN)NC(=O)Nc2cccc(OCc3ccccc3)c2)cc1 [Compound 204, (S)-6-AMINO-2-[3-(3-BENZYLOXY-PHENYL)-UREIDO]-HEXANOIC ACID P-TOLYLAMIDE] |  | 70.1 to 116.4 | 94 | ARF (Average Response Factor, Average Percentage of Control) [2]: 89.3%
4 | NCCCCCCNC(=O)[C@@H](NC(=O)Nc1ccc(OCc2ccccc2)cc1)c1ccccc1 [Compound 319, (S)—N-(6-AMINO-HEXYL)-2-[3-(4-BENZYLOXY-PHENYL)-UREIDO]-2-PHENYL-ACETAMIDE] | 71 | 80.0 to 116.4 |  | viability at 10 µM [2]: 95.6%
5 | Cc1cc2cc(NC(=O)[C@H](CCCCN)NC(=O)Nc3ccc(OCc4ccccc4)cc3)ccc2[nH]1 [Compound 206, (S)-6-AMINO-2-[3-(4-BENZYLOXY-PHENYL)-UREIDO]-HEXANOIC ACID (2-METHYL-1H-INDOL-5-YL)-AMIDE] | 87 | 81.4 to 107.6 |  | viability at 10 µM [2]: 92.9%
6 | Cc1ccc(NC(=O)[C@H](CCCCN)NC(=O)CNc2ccccc2Oc2ccccc2)cc1 [Compound 366, (S)-6-AMINO-2-[2-(2-PHENOXY-PHENYLAMINO)-ACETYLAMINO]-HEXANOIC ACID P-TOLYLAMIDE] |  | 64.8 to 121.1 | 100 | ARF (Average Response Factor, Average Percentage of Control) [2]: 100.4%
7 | Cc1ccc(NC(=O)CC2CN(C(=O)[C@H](C)N)CCN2C(=O)OCC2c3ccccc3-c3ccccc32)cc1 (stereo partly drawn) [Compound 184, 4-((S)-2-AMINO-PROPIONYL)-2-(P-TOLYLCARBAMOYL-METHYL)-PIPERAZINE-1-CARBOXYLIC ACID 9H-FLUOREN-9-YLMETHYL ESTER] |  |  | 38 | 
8 | Cc1ccc(NC(=O)C(CCCCN)NC(=O)OCC2c3ccccc3-c3ccccc32)cn1 (stereo not shown) [Compound 294, [5-AMINO-1-(6-METHYL-PYRIDIN-3-YLCARBAMOYL)-PENTYL]-CARBAMIC ACID 9H-FLUOREN-9-YLMETHYL ESTER] | 19 |  |  | 
9 | Cc1ccc(NC(=O)[C@H](CCCCN)NC(=O)CC2c3ccccc3-c3ccccc32)cc1 [Compound 53, (S)-6-AMINO-2-(2-9H-FLUOREN-9-YL-ACETYLAMINO)-HEXANOIC ACID P-TOLYLAMIDE] |  |  | 22 | 
10 | Cc1cc2cc(NC(=O)[C@H](CCNC(=O)CN)NC(=O)Nc3ccc4c(c3)Cc3ccccc3-4)ccc2[nH]1 [Compound 240, (S)-4-(2-AMINO-ACETYLAMINO)-2-[3-(9H-FLUOREN-2-YL)-UREIDO]-N-(2-METHYL-1H-INDOL-5-YL)-BUTYRAMIDE] | 63 |  |  | 
11 | Cc1ccc(NC(=O)[C@H](CCN)NC(=O)OCC2c3ccccc3-c3ccccc32)cc1 [Compound 108, (S)-(3-AMINO-1-P-TOLYLCARBAMOYL-PROPYL)-CARBAMIC ACID 9H-FLUOREN-9-YLMETHYL ESTER] |  |  | 84 | 
12 | Cc1ccc(NC(=O)[C@H](CCCCN)NC(=O)Nc2ccc(OCc3ccccc3F)cc2)cc1 [Compound 248, (S)-6-AMINO-2-{3-[4-(2-FLUORO-BENZYLOXY)-PHENYL]-UREIDO}-HEXANOIC ACID P-TOLYLAMIDE] |  |  | 61 | 
13 | NCCCC[C@@H](NC(=O)Nc1ccc(OCc2ccccc2)cc1)C(=O)Nc1ccc(C2CCCCC2)cc1 [Compound 166, (R)-6-AMINO-2-[3-(4-BENZYLOXY-PHENYL)-UREIDO]-HEXANOIC ACID (4-CYCLOHEXYL-PHENYL)-AMIDE] | 102 |  |  | 
14 | Cc1ccc(NC(=O)[C@H](CCCCN)NC(=O)NC2c3ccccc3-c3ccccc32)cc1 [Compound 126, (S)-6-AMINO-2-[3-(9H-FLUOREN-9-YL)-UREIDO]-HEXANOIC ACID P-TOLYLAMIDE] |  |  | 98 | 
15 | Cc1ccc(NC(=O)[C@H](CCCCN)NC(=O)Nc2ccc(OCc3ccc(F)cc3)cc2)cc1 [Compound 250, (S)-6-AMINO-2-{3-[4-(4-FLUORO-BENZYLOXY)-PHENYL]-UREIDO}-HEXANOIC ACID P-TOLYLAMIDE] |  |  | 57 | 
16 | Cc1ccc(NC(=O)[C@H](CCCCN)NC(=O)Nc2ccc(NCc3ccc(F)cc3)cc2)cc1 [Compound 225, (S)-6-AMINO-2-{3-[4-(4-FLUORO-BENZYLAMINO)-PHENYL]-UREIDO}-HEXANOIC ACID P-TOLYLAMIDE] |  |  | 62 | 
17 | O=C(CC1CNCCN1C(=O)Nc1ccc(OCc2ccccc2)cc1)Nc1ccc(C2CCCCC2)cc1 (stereo not shown) [Compound 163, 2-[(4-CYCLOHEXYL-PHENYLCARBAMOYL)-METHYL]-PIPERAZINE-1-CARBOXYLIC ACID (4-BENZYLOXY-PHENYL)-AMIDE] | 102 |  |  | 
18 | Cc1ccc(NC(=O)[C@H](Cc2ccc(CN)cc2)NC(=O)Nc2ccc(OCc3ccccc3)cc2)cc1 [Compound 146, (S)-3-(4-AMINOMETHYL-PHENYL)-2-[3-(4-BENZYLOXY-PHENYL)-UREIDO]-N-P-TOLYL-PROPIONAMIDE] |  |  | 102 | 
19 | NCCCC[C@H](NC(=O)OCC1c2ccccc2-c2ccccc21)C(=O)NC1CCCCC1 [Compound 22, (S)-(5-AMINO-1-CYCLOHEXYLCARBAMOYL-PENTYL)-CARBAMIC ACID 9H-FLUOREN-9-YLMETHYL ESTER] | 14 |  |  | 
